Test results reported in publication PMC6054517, “Design and synthesis of novel oridonin analogues as potent anticancer agents” (Journal of Enzyme Inhibition and Medicinal Chemistry, 2018).
Read-outs that look alike come from different tables or passages of the source.

What was measured:
[1] = test system: Bel7402; assay: MTT antiproliferative assay, Bel7402 cells; format: cell-based, human; settings: for IC50: Homo sapiens, Bel-7402, MTT, 48 h, means ± SD, n = 3
Source text: (§1) Human gastric cancer (AGS), human differentiation of advanced gastric cancer (MGC803), human colorectal cancer (HCT116), human lung cancer (A549), human hepatocellular carcinoma (Bel7402) and human cervical cancer (HeLa) cell lines were obtained from the State Key Laboratory of Natural Resources and Functional Molecules of the Changbai Mountain (Yanbian University) and maintained in Dulbecco’s modified Eagle’s medium and RPMI Media 1640 (RPMI1640), supplemented with 10% foetal bovine serum 100 IU/ml penicillin, […] and 2 mmol/l L-glutamine (Sigma) at 37 °7 in a humidified atmosphere containing 5% CO2.
(§2) All six human cancer cell lines and normal L02 cells were seeded in 96-well plates at the appropriate densities to ensure exponential growth throughout the experimental period (9 × 10^3 cells per well) and then allowed to adhere for 24 h. The cells were then treated for 48 h with four serial dilutions (100, 50, 10, and 1 µM) of each compound. 5-Fluorouracil (5-FU) was used as the positive control. After incubation for 48 h, 10 µl MTT solution was added to each well to give a final concentration of 2 mg ml^−1. The plates were then incubated for further 4 h. After incubation, the MTT solution was removed and 150 µl DMSO was added to each well to solubilise the formed product. To ensure complete solubilisation, the plates were shaken vigorously for 10 min at room temperature. The optometric density (OD) was read on a microplate reader (ELx800, BioTek, Highland Park, Winooski, VT) at a wavelength of 492 nm and the data were subsequently analysed. The percentage of cell growth inhibition was calculated from the following equation: inhibitory rate (%) = [1–(ODtreated–ODblank)/(ODcontrol–ODblank)] × 100.
(§3) The MTT assay was performed using a standard protocol.

[2] = test system: AGS; assay: MTT antiproliferative assay, AGS cells; format: cell-based, human; settings: for IC50: Homo sapiens, AGS, 48 h, MTT, means ± SD, n = 3; for Selectivity index AGS: IC50 on normal cells (L02)/IC50 on tumour cells (AGS)
Source text: as §1, §2, §3

[3] = test system: AGS, MGC803, Bel7402, HCT116, A549, and HeLa; assay: MTT assay, overall statement on six tumour cell lines; format: cell-based, human; settings: six cancer cell lines
Source text: as §1, §2, §3

[4] = test system: A549; assay: MTT antiproliferative assay, A549 cells; format: cell-based, human; settings: for IC50: Homo sapiens, A549, MTT, 48 h, means ± SD, n = 3; for Selectivity index A549: IC50 on normal cells (L02)/IC50 on tumour cells (A549)
Source text: as §1, §2, §3

[5] = test system: HCT116; assay: MTT antiproliferative assay, HCT116 cells; format: cell-based, human; settings: for IC50: MTT, 48 h, means ± SD, n = 3; for Selectivity index HCT116: IC50 on normal cells (L02)/IC50 on tumour cells (HCT116)
Source text: as §1, §2, §3

[6] = test system: L02; assay: MTT assay on normal cell line L02; format: cell-based; settings: normal human liver cell line L02, MTT, 48 h
Experimental: as §2, with “5-Fluorouracil (5-FU) was used as the positive control.” left out
Lack of selective cytotoxicity is the main factor that restricts the dose of most conventional chemotherapeutic agents. […] Selectivity indexes between cancer cells and L-02 cells were calculated.

[7] = test system: HCT116 cells; assay: Cell cycle distribution by flow cytometry (PI); format: cell-based, human; settings: HCT116, 5 μM, 48 h; control 19.35%
Experimental: HCT116 cells were plated in six-well plates (1.0 × 10^6 cells per well) and incubated at 37 °7 for 12 h. Exponentially growing cells were then incubated with compound 2p at different concentrations (0 , 5.0 µM) and oridonin at 5.0 µM. After 48 h, the cells were centrifuged at 1000 rpm for 10 min and then fixed in 70% ethanol at −20 °0 for at least 24 h. The cells were subsequently resuspended in phosphate-buffered saline (PBS) containing 50 µg ml^−1 RNase A and 50 µg ml^−1 PI. The cellular DNA content for the cell cycle distribution analysis was measured by flow cytometry using a FACSCalibur flow cytometer with Cell Quest software (Becton-Dickinson, Franklin Lakes, NJ), plotting at least 30,000 events per sample. The percentage of cells in the G1, S and G2 phases of the cell cycle were determined using the ModFit LT V4.0 software package (Verity Software, Topsham, ME).
Numerous cytotoxic compounds exert their antiproliferative effect by inducing cell cycle arrest (at a particular cell cycle checkpoint), apoptosis, or both[25]. These mechanisms are considered to be effective anticancer strategies. We used fluorescence-activated cell sorting analysis to explore the mechanism by which compound 2p reduced the viability of HCT116 cells. Compound 2p and oridonin were selected and tested against HCT116 cell lines at a concentration of 5 µM.

[8] = test system: MGC803; assay: MTT antiproliferative assay, MGC803 cells; format: cell-based, human; settings: for IC50: Homo sapiens, MGC-803, MTT, 48 h, means ± SD, n = 3; for Selectivity index MGC803: IC50 on normal cells (L02)/IC50 on tumour cells (MGC803)
Source text: as §1, §2, §3

[9] = test system: Hela; assay: MTT antiproliferative assay, HeLa cells; format: cell-based, human; settings: for IC50: Homo sapiens, HeLa, MTT, 48 h, means ± SD, n = 3; for Selectivity index Hela: IC50 on normal cells (L02)/IC50 on tumour cells (Hela)
Source text: as §1, §2, §3

[10] = test system: HCT116 cells; assay: Apoptosis by flow cytometry (annexin V-FITC/PI); format: cell-based, human; settings: HCT116, 5 µM, 48 h; vehicle 6.20%
Experimental: Apoptosis was detected using an Apoptosis Detection Kit (Invitrogen, Eugene, OR). Briefly, cells were plated in six-well plates (1.0 × 10^6 cells per well) and incubated at 37 °C for 12 h. Exponentially growing cells were then incubated with compound 2p at different concentrations (0 , 5.0 µM) and oridonin at 5.0 µM. Following 48 h of incubation, the cells were collected and washed twice with PBS, once with 1 × binding buffer, and then stained with 5 µM annexin V-FITC and 2.5 µM PI in 1 × binding buffer for 30 min at room temperature in the dark. Apoptotic cells were quantified using a FACSCalibur flow cytometer with the Cell Quest software (Becton-Dickinson).
Because compound 2p arrested the cells in the G2 phase, we investigated whether it also causes apoptosis. HCT116 cells were treated with the vehicle, compound 2p (5 µM), or oridonin (5 µM) for 48 h, and then stained with annexin V-FITC and PI.

[11] = test system: HCT116; settings: cited from earlier work

| SMILES | IC50 [1] [µM] | IC50 [2] [µM] | Selectivity index AGS [2] | antiproliferative activities against the six tumour cell lines (in words) [3] | IC50 [4] [µM] | Selectivity index A549 [4] | IC50 ([5]; Homo sapiens, HCT-116, 48 h) [µM] | Selectivity index HCT116 [5] | IC50 value in L02 cells relative to that in HCT116 cells (selectivity) ([5]; L02 versus HCT116) [fold] | IC50 [5] [µM] | IC50 [6] [µM] | percentage of G2 cell population [7] [%] | IC50 [8] [µM] | Selectivity index MGC803 [8] | IC50 [9] [µM] | Selectivity index Hela [9] | percentage of total apoptotic cells (right quadrants, Q2 + Q3) [10] [%] | IC50 [11] [µM] | Selectivity index Bel7402 ([1]; IC50 on normal cells (L02)/IC50 on tumour cells (Bel7402)) |
| --- | --- | --- | --- | --- | --- | --- | --- | --- | --- | --- | --- | --- | --- | --- | --- | --- | --- | --- | --- |
| CC(C)=CCOc1ccc(/C=C2/C(=O)[C@]34[C@H](O)[C@H]2CC[C@H]3C23CO[C@]4(O)[C@@H](O)[C@@H]2C(C)(C)CC[C@@H]3O)cc1 [Compound 2p, (1S,4aR,5S,6S,6aR,9S,11aS,14R,E)-1,5,6,14-tetrahydroxy-4,4-dimethyl-8-(4-((3-methylbut-2-en1yl)oxy)benzylidene)decahydro-1H-6,11b-(epoxymethano)-6a,9-methanocyclohepta[a]naphthalen-7(8H)-one] | 3.21 ± 0.58 | 4.09 ± 0.65 | 3.28 | more potent antiproliferative activities in vitro than oridonin | 5.9 ± 0.52 | 1.17 | 1.08 | 6.55 | 6.5 | 1.05 ± 0.23 | 6.88 ± 1.12 | 41.46 | 4.54 ± 0.94 | 0.75 | 6.33 ± 0.96 | 1.09 | 60.94 |  |  |
| CC(C)=CCOc1ccc(C(=O)/C=C/c2ccc(Cl)cc2)c(O)c1 [Compound 4] |  |  |  |  |  |  |  |  |  |  |  |  |  |  |  |  |  | 0.89 |  |
| C=C1C(=O)[C@]23[C@H](O)[C@H]1CC[C@H]2[C@@]12CO[C@]3(O)[C@@H](O)[C@@H]1C(C)(C)CC[C@@H]2O [Oridonin] | 9.59 ± 1.19 | 8.35 ± 0.41 | 0.83 |  | 24.7 ± 2.11 | 0.28 | 6.84 ± 0.98 | 1.02 |  |  | 6.97 ± 0.98 | 37.80 | 9.18 ± 1.01 | 0.76 | 15 ± 2.01 | 0.46 | 24.84 |  | 0.73 |
